Test in all cases: NCI anticancer screen, dose series, 48 h
The test system of experiment [1] is A498.
The subject of experiment [2] is CAKI-1.
For experiment [3], the system named is HCC 2998.
Experiment [4] has as its system HCT-15.
Experiment [5] deals with K562.
In experiment [6] the test system is KM12.
For experiment [7], the system named is LOX IMVI.
Experiment [8] concerns M14.
For experiment [9], the system named is MCF7.
Experiment [10] relates to MOLT-4.
For experiment [11], the system named is Malme-3M.
Experiment [12] concerns NCI-H460.
Experiment [13] has as its system OVCAR-4.
Experiment [14] concerns SF-268.
Experiment [15] concerns SK-MEL-2.
For experiment [16], the system named is SK-MEL-5.
Experiment [17] relates to SN12C.
Experiment [18] has as its system SW-620.
Experiment [19] concerns T47D.
Experiment [20] deals with U-251.

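Briefly, cells in 96-well plates were exposed to five compound concentrations for 48 h, and endpoints were estimated by linear interpolation. The concentration for 50% growth inhibition is given as GI50.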 The source made the active and inactive calls. No stated cut-off is given here; in the data, active = GI50 up to about 1.1 µM and inactive = higher. A value given as a limit tells only on which side of the number the result lay.

On to `O=c1[nH]nc(-c2ccc([N+](=O)[O-])cc2)n1/N=C/c1ccc([N+](=O)[O-])cc1`, for which the GI50 in experiment [1] was > 100 µM (inactive); in experiment [2], > 100 µM (inactive); in [3], > 100 µM (inactive); in [4], 73.8 µM; in [5], 43.7 µM (inactive); in experiment [6] it was 55.3 µM (inactive). The GI50 is 0.483 µM (active) in experiment [7]; > 100 µM (inactive) in experiment [8]; 47.9 µM (inactive) in experiment [9]; 23.6 µM (inactive) in experiment [10]; > 100 µM (inactive) in experiment [11]; 30.4 µM (inactive) in experiment [12]. The GI50 in [13] was 52.1 µM (inactive); in experiment [14] it was 72.9 µM (inactive); in experiment [15] it was > 100 µM (inactive); in experiment [16] it was 48.4 µM (inactive); in [17] it was > 100 µM (inactive); in experiment [18], > 100 µM (inactive). For the same compound, the GI50 in experiment [19] was > 100 µM (inactive); in [20], 71.4 µM (inactive).

For `CCC1CCC2C3CC=C4CC(OC(C)=O)C(N)CC4(C)C3CCC12C` (stereo not given), the GI50 in [1] was 5.25 µM (inactive); in experiment [2], 8.55 µM (inactive); in [3], 1.59 µM (inactive); in [4], 3.3 µM; in experiment [5] it was 2.05 µM (inactive); in [6], 2.96 µM (inactive). In addition, the GI50 in experiment [7] is 1.8 µM (inactive); in [8], 1.82 µM (inactive); in experiment [9], 6.41 µM (inactive); in [10] it was 2.37 µM (inactive); in experiment [11] it was 3.49 µM (inactive); in [12], 1.87 µM (inactive). Moreover, the GI50 in experiment [13] was 4.94 µM (inactive); in experiment [14] it was 2.71 µM (inactive); in experiment [15], 3.97 µM (inactive); in [16] it was 1.82 µM (inactive); in experiment [17], 5.3 µM (inactive); in [18], 3.21 µM (inactive). The GI50 is 5.78 µM (inactive) in experiment [19] and 1.86 µM (inactive) in experiment [20].

As for `CN(C)CCNc1ccc2nnn3c4ccccc4c(=O)c1c23`, the GI50 was 2.59 µM (inactive) in experiment [1]; 2.5 µM (inactive) in [2]; 7.13 µM (inactive) in experiment [3]; 3.25 µM in experiment [4]; 2.86 µM (inactive) in experiment [5]; 3.85 µM (inactive) in [6]. The GI50 in experiment [7] is 1.62 µM (inactive); in [8], 3.07 µM (inactive); in experiment [9] it was 4.32 µM (inactive); in [10], 1.27 µM (inactive); in experiment [11], 3.01 µM (inactive); in experiment [12] it was 2.25 µM (inactive). Also, the GI50 in experiment [13] was 3.08 µM (inactive); in [14], 4.22 µM (inactive); in experiment [15], 3.7 µM (inactive); in experiment [16], 2.15 µM (inactive); in experiment [17], 2.96 µM (inactive); in [18], 1.59 µM (inactive). For the same compound, the figures for the GI50 in experiment [19] and in experiment [20] were 6 µM (inactive) and 1.95 µM (inactive), respectively.

As to `CCN(CC)CCCNc1c2c(Cl)cc(Cl)cc2nc2nc(O)nc(C)c12`, the GI50 in experiment [1] is > 100 µM (inactive); in [2] it was > 100 µM (inactive); in [3], 21.5 µM (inactive); in experiment [4], above 100 µM; in experiment [5] it was 44.1 µM (inactive); in [6], 15.7 µM (inactive). The GI50 is 23.1 µM (inactive) in experiment [7]; 26.4 µM (inactive) in experiment [8]; 23.3 µM (inactive) in experiment [9]; 20.7 µM (inactive) in [10]; 41.6 µM (inactive) in experiment [11]; 20.2 µM (inactive) in [12]. In addition, the GI50 was 33.9 µM (inactive) in experiment [13]; 23 µM (inactive) in experiment [14]; 27.5 µM (inactive) in experiment [15]; 65.9 µM (inactive) in experiment [16]; 25.3 µM (inactive) in experiment [17]; 17.8 µM (inactive) in [18]. Also, the GI50 is > 100 µM (inactive) in [19] and 17.3 µM (inactive) in experiment [20].

Regarding `C/C(CC/C(C)=N/O)=N\O`, the GI50 in experiment [1] was > 100 µM (inactive); in [2] it was > 100 µM (inactive); in [3] it was > 100 µM (inactive); in [4] it was above 100 µM; in [5] it was > 100 µM (inactive); in experiment [6] it was > 100 µM (inactive). For the same compound, the GI50 in [7], in experiment [8], in experiment [9], in [10], in experiment [11] and in [12] was > 100 µM (inactive) each time. For the same compound, the GI50 in experiment [13], in experiment [14], in experiment [15], in [16], in experiment [17] and in experiment [18] was > 100 µM (inactive) each time. Further, the GI50 in experiment [19] and in [20] was > 100 µM (inactive) each time.

`COc1cc2c(cc1O)c(O)cc1c3cc(OC)c(OC)cc3c[n+](C)c21`: the GI50 in [1] was > 100 µM (inactive); in experiment [2], > 54 µM (inactive); in [3], > 91 µM (inactive); in experiment [4] it was above 100 µM; in experiment [5] it was 5.04 µM (inactive); in experiment [6], > 100 µM (inactive). Further, the GI50 in experiment [7] was 16.2 µM (inactive); in experiment [8] it was > 100 µM (inactive); in [9] it was 8.73 µM (inactive); in experiment [10], 2.86 µM (inactive); in [11], 32.9 µM (inactive); in experiment [12], 15.9 µM (inactive). The GI50 in [13] is > 80.5 µM (inactive); in experiment [14], < 0.01 µM (active); in experiment [15], > 100 µM (inactive); in [16], 19 µM (inactive); in experiment [17], 1.24 µM (inactive); in experiment [18], 28.2 µM (inactive). Besides, the GI50 in [19] was 1.45 µM (inactive); in experiment [20] it was 0.582 µM (active).

Turning to `CCCCC[C@H]1CC=CC(=O)O1`, the GI50 is 1.82 µM (inactive) in experiment [1]; 2.55 µM (inactive) in [2]; 4.25 µM (inactive) in experiment [3]; 4.2 µM in experiment [4]; 5.48 µM (inactive) in experiment [5]; 3.18 µM (inactive) in experiment [6]. Moreover, the GI50 was 4.65 µM (inactive) in experiment [7]; 11.5 µM (inactive) in experiment [8]; 4.89 µM (inactive) in experiment [9]; 2.34 µM (inactive) in experiment [10]; 15.5 µM (inactive) in experiment [11]; 5.35 µM (inactive) in experiment [12]. The GI50 in [13] is 5.7 µM (inactive); in experiment [14], 5.38 µM (inactive); in experiment [15], 5.43 µM (inactive); in experiment [16], 7.78 µM (inactive); in experiment [17], 6.68 µM (inactive); in [18], 3.41 µM (inactive). Also, the figures for the GI50 in experiment [19] and in experiment [20] were 4.55 µM (inactive) and 8.3 µM (inactive), respectively.

For the compound `O=S1(=O)CS(=O)(=O)OCCO1`, the GI50 is 52.5 µM (inactive) in [1]; 38.4 µM (inactive) in [2]; 46.6 µM (inactive) in [3]; 48.6 µM in experiment [4]; 60 µM (inactive) in [5]; 51.4 µM (inactive) in experiment [6]. Besides, the GI50 in [7] was 16.8 µM (inactive); in experiment [8], 47.3 µM (inactive); in experiment [9], 51.8 µM (inactive); in experiment [10] it was 10.4 µM (inactive); in experiment [11], 55.1 µM (inactive); in experiment [12], 12.9 µM (inactive). The GI50 in [13] was 52.8 µM (inactive); in experiment [14] it was 15.1 µM (inactive); in experiment [15], 50.8 µM (inactive); in [16], 40.1 µM (inactive); in experiment [17], 66.1 µM (inactive); in experiment [18] it was 40.9 µM (inactive). In addition, the GI50 in experiment [19] was 53.1 µM (inactive); in experiment [20], 21.3 µM (inactive).

Consider `CSc1c(C#N)c(O)n(-c2ccc(C)cc2)c(=O)c1C(C)=O`, for which the GI50 in experiment [1] was 51.5 µM (inactive); in [2] it was > 100 µM (inactive); in experiment [3], > 100 µM (inactive); in experiment [4], above 100 µM; in experiment [5], > 100 µM (inactive); in experiment [6], > 100 µM (inactive). The GI50 in experiment [7] is > 100 µM (inactive); in [8], 94.6 µM (inactive); in [9] it was > 100 µM (inactive); in [10], > 100 µM (inactive); in experiment [11], > 100 µM (inactive); in experiment [12], > 100 µM (inactive). The GI50 in experiment [13], in experiment [14], in [15], in experiment [16], in [17] and in [18] was > 100 µM (inactive) each time. Moreover, the GI50 in experiment [19] and in experiment [20] was > 100 µM (inactive) each time.

Regarding `CC1CC(=O)Nc2cc(Cl)ccc2N1C(=O)C1CC1` (stereo not given), the GI50 in [1] is > 100 µM (inactive); in experiment [2], > 100 µM (inactive); in experiment [3] it was > 100 µM (inactive); in experiment [4] it was above 100 µM; in experiment [5], > 100 µM (inactive); in experiment [6], > 100 µM (inactive). In addition, the GI50 in experiment [7], in [8], in experiment [9], in experiment [10], in experiment [11] and in experiment [12] was > 100 µM (inactive) in each case. Moreover, the GI50 in experiment [13], in experiment [14], in experiment [15], in experiment [16], in experiment [17] and in experiment [18] was > 100 µM (inactive) in each case. For the same compound, the GI50 in [19] and in experiment [20] was > 100 µM (inactive) throughout.

(Values after ChEMBL document CHEMBL1201862, “PubChem BioAssay data set” (2004).)
